# Patent US9370189B2, “Controlling Pseudomonas aeruginosa persister cells with GM-CSF” (priority 2012, dated 2016)
# Key:
# Format in all cases: cell-based, Pseudomonas aeruginosa
# P. aeruginosa PAO1 = test: Effect of GM-CSF on planktonic PAO1 total population and persister cells at stationary phase, co-treatment with antibiotic
# [1] = tested on: P. aeruginosa PAO1 biofilm; test: Effect of GM-CSF on 24-h PAO1 biofilm, alone and with antibiotic
# Method: (§1) This Example describes the treatment of biofilms made from P. aeruginosa PAO1, PDO300 and Escherichia coli K12, with GM-CSF introduced directly or together with an antibiotic to test the synergy.
# (§2) In brief, after preparing an overnight culture, it was subcultured to an initial OD600 of 0.01 to a total volume of 20 mL M63 medium (for PAO1 and PDO300) or 20 ml LB medium (for E. coli K12) in a petri dish with 316L stainless steel coupons (1.75 cm×1 cm). The biofilm was grown for 24 h at 37° C. without shaking. After incubation, the coupons were washed by gently dipping in 0.85% NaCl twice using tweezers and were placed in new empty petri dishes.
# (§3) To test the synergistic effects between GM-CSF (2.43 pg/mL or 0.17 pM) and antibiotics, a total of 8 coupons were analyzed. These 8 coupons were placed in 4 petri dishes (2 coupons in each dish). The two dishes were labeled as control and the other two as treatment samples. In the treatment samples, GM-CSF was added to 20 mL of 0.85% NaCl to a concentration of 2.43 pg/mL (or 0.17 pM). The control samples were supplemented with the same amount of PBS and BSA as present in the samples with 2.43 pg/ml (or 0.17 pM) GM-CSF. The coupons were incubated at 37° C. for 2 h.
# (§4) After incubation, a control dish and a treatment dish was selected for studying the killing effect of 2.43 pg/ml GM-CSF on biofilm cells. Each coupon after gentle washing with 0.85% NaCl buffer, was placed in a test tube with 3 mL 0.85% NaCl buffer in each. They were sonicated (B200, Sinosonic Industrial Co., Ltd., Taiwan) for 4 mins to release the biofilm cells in the buffer. After vortexing for 1 min, they were plated on LB agar plates using drop plate method. The CFU was counted after incubation at 37° C. for 24 h to count the total number of viable cells. Furthermore, the synergistic effect of antibiotics with GM-CSF was evaluated with additional 3.5 h treatment with antibiotic at 37° C. After incubation, drop plate method was performed and the CFU was counted to understand if there is a synergistic effect.
# [2] = tested on: P. aeruginosa PDO300 biofilm; test: Effect of GM-CSF on 24-h PDO300 biofilm, alone and with antibiotic; conditions: for average CFU/ml of biofilm cells reduced by: reduction, PDO300 biofilm
# Method: as §1, §2, §3, §4
# biofilm cells of PDO300 = test: Synergistic effects of GM-CSF, tobramycin and alginate lyase on biofilm cells of PDO300; conditions: 2.43 pg/mL GM-CSF with 200 μg/mL tobramycin, 3.5 h
# Method: This Example describes an experiment, similar to the one described in Example 5 with respect to the planktonic cells of PDO300, which was performed on the biofilm cells of PDO300.
# In brief, after preparing an overnight culture, it was subcultured to an OD600 of 0.01 in a total volume of 20 mL M63 medium with 316L stainless steel coupons (1.75 cm×1 cm). The biofilm was grown for 24 h at 37° C. After incubation, the coupons were washed by gently dipping in 0.85% NaCl buffer twice using tweezers and then placed in new empty petri dishes.
# To test the synergistic effects of GM-CSF (2.43 pg/mL), tobramycin (200 μg/mL) and alginate lyase (0.5 mg/mL), a total of 8 coupons were included. These 8 coupons were placed in 8 microcentrifuge tubes with 2 mL of 0.85% NaCl buffer. There were 4 treatments samples, with 2 coupons for each treatment (i) Control (ii) […] Tobramycin (iii) 200 μg/mL Tobramycin and 2.43 pg/mL GM-CSF and (iv) 200 μg/mL Tobramycin, 2.43 pg/mL GM-CSF and 0.5 mg/mL Alginate lyase. […]
# After incubation, each coupon was gently washed with 0.85% NaCl buffer and placed in a test tube with 2 mL of 0.85% NaCl buffer. […] The CFU was counted after incubation at 37° C. for 24 h to quantify the total number of viable cells. The synergistic effects of GM-CSF, tobramycin and alginate lyase were quantified based on CFU data.
substance,measurement,setting,value
"GM-CSF: granulocyte macrophage-colony stimulating factor, a cytokine secreted by macrophages; recombinant human GM-CSF (R&D systems) in binding tests",% change in avg. CFU/mL by GM-CSF (compared to GM-CSF free control),"P. aeruginosa PAO1; persisters, 1.7 pM GM-CSF, 200 μg/mL ciprofloxacin",−53.8 ± 16.1%
same,% change in avg. CFU/mL by GM-CSF (compared to GM-CSF free control),"P. aeruginosa PAO1; persisters, 1.7 pM GM-CSF, 200 μg/mL gentamicin",−12.7 ± 8.8%
same,% change in avg. CFU/mL by GM-CSF (compared to GM-CSF free control),"P. aeruginosa PAO1; persisters, 1.7 pM GM-CSF, 200 μg/mL tobramycin",−82.7 ± 2.3%
same,% change in avg. CFU/mL by GM-CSF (compared to GM-CSF free control),"P. aeruginosa PAO1; persisters, 17 pM GM-CSF, 200 μg/mL ciprofloxacin",−74.0 ± 2.9%
same,% change in avg. CFU/mL by GM-CSF (compared to GM-CSF free control),"P. aeruginosa PAO1; persisters, 17 pM GM-CSF, 200 μg/mL gentamicin",−25.4 ± 10.6%
same,% change in avg. CFU/mL by GM-CSF (compared to GM-CSF free control),"P. aeruginosa PAO1; persisters, 17 pM GM-CSF, 200 μg/mL tetracycline",−91.2 ± 3.2%
same,% change in avg. CFU/mL by GM-CSF (compared to GM-CSF free control),"P. aeruginosa PAO1; persisters, 17 pM GM-CSF, 200 μg/mL tobramycin",−86.5 ± 1.7%
same,% change in avg. CFU/mL by GM-CSF (compared to GM-CSF free control),"P. aeruginosa PAO1; total viable cells, 1.7 pM GM-CSF, 200 μg/mL ciprofloxacin",−19.5 ± 15.6%
same,% change in avg. CFU/mL by GM-CSF (compared to GM-CSF free control),"P. aeruginosa PAO1; total viable cells, 1.7 pM GM-CSF, 200 μg/mL gentamicin",−13.1 ± 7.4%
same,% change in avg. CFU/mL by GM-CSF (compared to GM-CSF free control),"P. aeruginosa PAO1; total viable cells, 1.7 pM GM-CSF, 200 μg/mL tobramycin",−9.4 ± 20.0%
same,% change in avg. CFU/mL by GM-CSF (compared to GM-CSF free control),"P. aeruginosa PAO1; total viable cells, 17 pM GM-CSF, 200 μg/mL ciprofloxacin",−10.3 ± 21.5%
same,% change in avg. CFU/mL by GM-CSF (compared to GM-CSF free control),"P. aeruginosa PAO1; total viable cells, 17 pM GM-CSF, 200 μg/mL gentamicin",−15.9 ± 7.4%
same,% change in avg. CFU/mL by GM-CSF (compared to GM-CSF free control),"P. aeruginosa PAO1; total viable cells, 17 pM GM-CSF, 200 μg/mL tetracycline",−1.0 ± 12.4%
same,% change in avg. CFU/mL by GM-CSF (compared to GM-CSF free control),"P. aeruginosa PAO1; total viable cells, 17 pM GM-CSF, 200 μg/mL tobramycin",+3.1 ± 18.6%
same,% change in avg. CFU/ml after adding factor + CIP,"[1]; 24-h PAO1 biofilm, 2.43 pg/mL GM-CSF with 200 μg/mL ciprofloxacin",−23.8%
same,% change in avg. CFU/ml after adding factor + TET,"[1]; 24-h PAO1 biofilm, 2.43 pg/mL GM-CSF with 200 μg/mL tetracycline",−10.0%
same,% change in avg. CFU/ml after adding factor + TOB,"[1]; 24-h PAO1 biofilm, 2.43 pg/mL GM-CSF with 200 μg/mL tobramycin",−34.1%
same,% change in avg. CFU/ml after adding factor + GEN,"[1]; 24-h PAO1 biofilm, 2.43 pg/mL GM-CSF with 250 μg/mL gentamycin",−12.9%
same,average CFU/ml of biofilm cells reduced by,"[1]; reduction, PAO1 biofilm, 2.43 pg/mL GM-CSF alone, average of 2 experiments",1.3%
same,average CFU/mL of biofilm cells reduced by,"[1]; reduction, PAO1 biofilm, 2.43 pg/mL GM-CSF in the presence of 200 μg/mL ciprofloxacin",22.8%
same,average CFU/mL of biofilm cells reduced by,"[1]; reduction, PAO1 biofilm, 2.43 pg/mL GM-CSF in the presence of 200 μg/mL tetracycline",7.5%
same,average CFU/mL of biofilm cells reduced by,"[1]; reduction, PAO1 biofilm, 2.43 pg/mL GM-CSF in the presence of 200 μg/mL tobramycin",33.3%
same,average CFU/mL of biofilm cells reduced by,"[1]; reduction, PAO1 biofilm, 2.43 pg/mL GM-CSF in the presence of 250 μg/mL gentamicin",10.5%
same,% change in avg. CFU/ml after adding factor + CIP,"[2]; 24-h PDO300 biofilm, 2.43 pg/mL GM-CSF with 200 μg/mL ciprofloxacin",−14.0%
same,% change in avg. CFU/ml after adding factor + TOB,"[2]; 24-h PDO300 biofilm, 2.43 pg/mL GM-CSF with 200 μg/mL tobramycin",−13.0%
same,% change in avg. CFU/ml after adding factor + GEN,"[2]; 24-h PDO300 biofilm, 2.43 pg/ml GM-CSF with 200 μg/mL gentamicin",−10.8%
same,% change in avg. CFU/ml after adding factor + TET,"[2]; 24-h PDO300 biofilm, 2.43 pg/ml GM-CSF with 200 μg/mL tetracycline",−7.3%
same,average CFU/ml of biofilm cells reduced by,"[2]; 2.43 pg/mL GM-CSF alone, average of 2 experiments",5.64%
same,average CFU/ml of biofilm cells reduced by,[2]; 2.43 pg/mL GM-CSF in the presence of 200 μg/mL ciprofloxacin,8.8%
same,average CFU/ml of biofilm cells reduced by,[2]; 2.43 pg/mL GM-CSF in the presence of 200 μg/mL gentamicin,5.6%
same,average CFU/ml of biofilm cells reduced by,[2]; 2.43 pg/mL GM-CSF in the presence of 200 μg/mL tetracycline,1.8%
same,average CFU/ml of biofilm cells reduced by,[2]; 2.43 pg/mL GM-CSF in the presence of 200 μg/mL tobramycin,7.7%
same,additional killing of biofilm cells compared to the 200 μg/mL tobramycin treatment alone,biofilm cells of PDO300,−24.7±5.3%
